Among the data in paper PMC10175918 (Communications Biology, 2023) are activation values, retold here.

Molecules are shown by their SMILES. Where two headings read alike, the source gives them in different places.

Common to all, as to assay: TGFα-shedding assay-based GPCR screening with chimeric Gα subunit proteins
Type in all cases: cell-based

Test [1] deals with T1, 348 GPCRs (Homo sapiens, UniProt Q96P66).
T1 construct: expressed in transfected cells; host or cells: HEK293A
T1 sequence (Q96P66 1-508): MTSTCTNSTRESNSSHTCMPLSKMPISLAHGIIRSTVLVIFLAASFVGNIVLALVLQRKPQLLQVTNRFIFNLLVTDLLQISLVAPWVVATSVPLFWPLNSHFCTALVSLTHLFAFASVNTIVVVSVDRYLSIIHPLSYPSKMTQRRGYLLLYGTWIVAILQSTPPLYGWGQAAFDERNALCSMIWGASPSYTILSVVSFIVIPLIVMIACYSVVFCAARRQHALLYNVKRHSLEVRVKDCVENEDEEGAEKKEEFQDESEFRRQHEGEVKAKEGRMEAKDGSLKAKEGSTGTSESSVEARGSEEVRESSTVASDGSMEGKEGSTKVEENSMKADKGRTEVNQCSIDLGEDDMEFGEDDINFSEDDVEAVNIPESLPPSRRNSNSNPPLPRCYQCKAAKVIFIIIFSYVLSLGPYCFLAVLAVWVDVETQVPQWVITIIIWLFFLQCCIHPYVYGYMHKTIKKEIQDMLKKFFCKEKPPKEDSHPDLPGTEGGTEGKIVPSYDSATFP

Test [2] concerns the target T2, 348 GPCRs (Homo sapiens, UniProt P0DMS8).
T2 construct: expressed in transfected cells; host or cells: HEK293A
T2 sequence (P0DMS8 1-318): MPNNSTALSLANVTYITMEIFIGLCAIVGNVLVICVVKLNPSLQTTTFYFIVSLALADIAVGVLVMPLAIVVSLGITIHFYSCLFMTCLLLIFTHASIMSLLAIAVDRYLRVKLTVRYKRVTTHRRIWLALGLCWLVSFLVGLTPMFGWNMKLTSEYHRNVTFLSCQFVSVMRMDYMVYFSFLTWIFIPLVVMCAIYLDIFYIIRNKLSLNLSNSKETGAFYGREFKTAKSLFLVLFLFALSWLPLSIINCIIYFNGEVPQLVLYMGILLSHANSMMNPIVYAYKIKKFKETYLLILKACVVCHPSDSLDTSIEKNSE
Particulars: 10µM, Favipiravir 100μM.

In test [3] the target is 348 GPCRs (Homo sapiens, UniProt P07550). The conditions noted are these: 10µM, Favipiravir 100μM.
Chain of 348 GPCRs (Homo sapiens, UniProt P07550) (P07550 whole entry): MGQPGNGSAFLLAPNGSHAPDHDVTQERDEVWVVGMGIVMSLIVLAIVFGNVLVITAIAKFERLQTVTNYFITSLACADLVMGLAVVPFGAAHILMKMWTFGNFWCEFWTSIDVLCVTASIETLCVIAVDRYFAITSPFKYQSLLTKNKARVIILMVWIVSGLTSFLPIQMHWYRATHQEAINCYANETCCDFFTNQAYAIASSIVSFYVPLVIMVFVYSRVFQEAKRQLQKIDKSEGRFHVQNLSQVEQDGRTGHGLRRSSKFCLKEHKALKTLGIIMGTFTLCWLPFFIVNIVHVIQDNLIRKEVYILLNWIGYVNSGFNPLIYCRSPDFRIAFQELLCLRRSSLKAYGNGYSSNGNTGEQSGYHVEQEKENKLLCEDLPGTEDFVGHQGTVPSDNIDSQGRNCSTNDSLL
Test [4] deals with T3, 348 GPCRs (Homo sapiens, UniProt Q86VZ1).
T3 construct: expressed in transfected cells; host or cells: HEK293A
T3 sequence (Q86VZ1 whole entry): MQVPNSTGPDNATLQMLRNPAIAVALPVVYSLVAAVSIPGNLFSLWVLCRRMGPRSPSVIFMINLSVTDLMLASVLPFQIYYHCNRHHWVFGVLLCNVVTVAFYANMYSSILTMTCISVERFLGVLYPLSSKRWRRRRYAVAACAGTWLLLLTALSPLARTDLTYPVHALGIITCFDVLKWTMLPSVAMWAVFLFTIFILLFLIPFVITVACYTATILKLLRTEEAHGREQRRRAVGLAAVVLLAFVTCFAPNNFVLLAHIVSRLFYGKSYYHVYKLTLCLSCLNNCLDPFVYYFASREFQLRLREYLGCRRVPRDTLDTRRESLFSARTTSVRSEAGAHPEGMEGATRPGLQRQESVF

The target of test [5] is T4, 348 GPCRs (Homo sapiens, UniProt P48546).
T4 sequence (P48546 22-466): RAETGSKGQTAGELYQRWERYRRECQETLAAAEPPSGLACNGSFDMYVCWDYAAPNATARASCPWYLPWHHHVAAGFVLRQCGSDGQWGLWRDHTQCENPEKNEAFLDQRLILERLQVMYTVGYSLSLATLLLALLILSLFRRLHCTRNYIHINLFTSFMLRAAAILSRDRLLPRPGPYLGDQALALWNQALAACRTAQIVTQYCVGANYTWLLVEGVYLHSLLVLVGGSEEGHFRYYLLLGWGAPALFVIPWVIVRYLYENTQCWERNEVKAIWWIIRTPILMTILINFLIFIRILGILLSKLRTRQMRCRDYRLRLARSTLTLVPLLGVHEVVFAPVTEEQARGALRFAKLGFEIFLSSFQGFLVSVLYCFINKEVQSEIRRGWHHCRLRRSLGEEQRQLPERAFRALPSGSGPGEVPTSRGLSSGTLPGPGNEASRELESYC
The conditions noted are these: 10µM, Favipiravir 100μM.

Test [6] deals with T5, 348 GPCRs (Homo sapiens, UniProt Q6U736).
T5 construct: expressed in transfected cells; host or cells: HEK293A
T5 sequence (Q6U736 whole entry): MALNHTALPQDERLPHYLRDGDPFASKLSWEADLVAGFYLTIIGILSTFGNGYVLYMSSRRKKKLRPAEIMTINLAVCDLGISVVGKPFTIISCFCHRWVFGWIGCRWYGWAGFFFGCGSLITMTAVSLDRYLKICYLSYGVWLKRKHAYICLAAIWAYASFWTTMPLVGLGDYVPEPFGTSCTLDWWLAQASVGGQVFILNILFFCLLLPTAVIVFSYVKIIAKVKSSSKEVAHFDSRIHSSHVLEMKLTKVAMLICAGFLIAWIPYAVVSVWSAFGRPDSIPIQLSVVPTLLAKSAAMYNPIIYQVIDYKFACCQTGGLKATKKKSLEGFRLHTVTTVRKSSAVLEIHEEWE
Particulars: 10µM, Favipiravir 100μM.

Test [7] deals with 348 GPCRs (Homo sapiens, UniProt P30989). The conditions noted are these: 10µM, Favipiravir 100μM.
Chain of 348 GPCRs (Homo sapiens, UniProt P30989) (P30989 whole entry): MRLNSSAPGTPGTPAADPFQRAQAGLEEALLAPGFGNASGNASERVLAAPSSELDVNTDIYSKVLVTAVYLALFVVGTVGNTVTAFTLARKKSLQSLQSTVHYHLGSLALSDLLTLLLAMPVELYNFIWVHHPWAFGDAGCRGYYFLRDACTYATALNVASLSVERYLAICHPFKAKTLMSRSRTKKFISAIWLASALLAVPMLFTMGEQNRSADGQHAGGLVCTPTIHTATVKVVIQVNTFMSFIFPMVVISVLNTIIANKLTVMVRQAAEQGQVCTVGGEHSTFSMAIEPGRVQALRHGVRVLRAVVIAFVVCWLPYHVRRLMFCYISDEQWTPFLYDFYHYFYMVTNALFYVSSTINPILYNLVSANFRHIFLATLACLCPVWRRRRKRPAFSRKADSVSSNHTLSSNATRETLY
Test [8] deals with T6, 348 GPCRs (Homo sapiens, UniProt Q9BY21).
T6 construct: expressed in transfected cells; host or cells: HEK293A
T6 sequence (Q9BY21 whole entry): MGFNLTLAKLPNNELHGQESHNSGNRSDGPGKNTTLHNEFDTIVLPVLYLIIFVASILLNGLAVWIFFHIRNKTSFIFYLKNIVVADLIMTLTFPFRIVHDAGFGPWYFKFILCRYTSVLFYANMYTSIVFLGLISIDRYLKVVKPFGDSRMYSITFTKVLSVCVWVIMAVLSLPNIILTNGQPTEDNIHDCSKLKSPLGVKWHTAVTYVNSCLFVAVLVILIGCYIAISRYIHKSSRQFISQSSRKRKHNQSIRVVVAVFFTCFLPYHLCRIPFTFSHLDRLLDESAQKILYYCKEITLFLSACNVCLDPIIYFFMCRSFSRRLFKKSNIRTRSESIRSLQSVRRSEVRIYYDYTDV
Particulars: 10µM, Favipiravir 100μM.

The target in test [9] is T7, 348 GPCRs (Homo sapiens, UniProt P35408).
T7 construct: expressed in transfected cells; host or cells: HEK293A
T7 sequence (P35408 whole entry): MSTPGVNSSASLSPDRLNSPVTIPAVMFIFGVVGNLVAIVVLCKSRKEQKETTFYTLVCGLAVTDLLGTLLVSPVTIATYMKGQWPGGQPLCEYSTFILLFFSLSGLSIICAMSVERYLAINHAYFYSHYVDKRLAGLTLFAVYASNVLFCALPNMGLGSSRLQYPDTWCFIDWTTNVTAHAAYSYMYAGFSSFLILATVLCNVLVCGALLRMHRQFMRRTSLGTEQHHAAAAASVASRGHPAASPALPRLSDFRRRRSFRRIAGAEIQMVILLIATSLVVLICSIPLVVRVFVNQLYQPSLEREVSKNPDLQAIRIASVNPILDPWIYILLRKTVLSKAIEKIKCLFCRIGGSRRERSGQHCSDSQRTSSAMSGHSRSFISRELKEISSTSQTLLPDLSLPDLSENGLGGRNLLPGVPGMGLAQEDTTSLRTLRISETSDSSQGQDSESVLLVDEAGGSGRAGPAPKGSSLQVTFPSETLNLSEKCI
Particulars: 10µM, Favipiravir 100μM.

Test [10] has as its target T8, 348 GPCRs (Homo sapiens, UniProt Q96RI0).
T8 construct: expressed in transfected cells; host or cells: HEK293A
T8 sequence (Q96RI0 18-385): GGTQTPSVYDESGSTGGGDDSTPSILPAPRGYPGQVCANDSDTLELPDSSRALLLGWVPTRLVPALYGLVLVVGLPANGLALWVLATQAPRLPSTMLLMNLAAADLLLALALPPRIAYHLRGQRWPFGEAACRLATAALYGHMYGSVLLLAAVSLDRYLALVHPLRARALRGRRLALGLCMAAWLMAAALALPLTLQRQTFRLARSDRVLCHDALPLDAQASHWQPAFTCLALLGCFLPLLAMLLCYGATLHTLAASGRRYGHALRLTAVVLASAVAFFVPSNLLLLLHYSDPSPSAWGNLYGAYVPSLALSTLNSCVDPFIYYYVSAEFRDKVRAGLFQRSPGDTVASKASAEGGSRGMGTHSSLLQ
Particulars: 10µM, Favipiravir 100μM.

The mark [11] stands for this setting: GPCR GPR101 (G protein-coupled receptor 101), read-out: % GPCR activation compared to TPA.
[12] abbreviates: ADORA3 (adenosine A3 receptor), read-out: % GPCR activation compared to TPA.
Setting [13] is: ADRB2 (adrenoceptor beta 2, surface), read-out: % GPCR activation compared to TPA.
The mark [14] stands for this setting: GPCR P2Y8 (purinergic receptor P2Y, G-protein coupled, 8), read-out: % GPCR activation compared to TPA.
[15] abbreviates: GIPR (gastric inhibitory polypeptide receptor), read-out: % GPCR activation compared to TPA.
Where [16] appears, read: OPN5 (opsin 5), read-out: % GPCR activation compared to TPA.
The mark [17] stands for this setting: NTSR1(CO) (neurotensin receptor 1), read-out: % GPCR activation compared to TPA.
Setting [18] is: GPR87 (G Protein-Coupled Receptor 87), read-out: % GPCR activation compared to TPA.
Where [19] appears, read: EP4 (prostaglandin E receptor 4), read-out: % GPCR activation compared to TPA.
[20] abbreviates: F2RL3 (coagulation factor II (thrombin) receptor-like 3), read-out: % GPCR activation compared to TPA.
Setting [21] is: read-out: % GPCR activation compared to TPA, GPCR GPR101 (G protein-coupled receptor 101).
[22] abbreviates: read-out: % GPCR activation compared to TPA, ADORA3 (adenosine A3 receptor).
Setting [23] is: read-out: % GPCR activation compared to TPA, ADRB2 (adrenoceptor beta 2, surface).
[24] abbreviates: read-out: % GPCR activation compared to TPA, GPCR P2Y8 (purinergic receptor P2Y, G-protein coupled, 8).
Setting [25] is: read-out: % GPCR activation compared to TPA, GIPR (gastric inhibitory polypeptide receptor).
Where [26] appears, read: read-out: % GPCR activation compared to TPA, OPN5 (opsin 5).
The mark [27] stands for this setting: read-out: % GPCR activation compared to TPA, NTSR1(CO) (neurotensin receptor 1).
Setting [28] is: read-out: % GPCR activation compared to TPA, GPR87 (G Protein-Coupled Receptor 87).
[29] abbreviates: read-out: % GPCR activation compared to TPA, EP4 (prostaglandin E receptor 4).
Setting [30] is: read-out: % GPCR activation compared to TPA, F2RL3 (coagulation factor II (thrombin) receptor-like 3).

`CC(C)C(=O)OC[C@H]1O[C@@H](n2ccc(NO)nc2=O)[C@H](O)[C@@H]1O` [molnupiravir]: the activation at 10 µM on 348 GPCRs [1] (setting [11]) is -0.865%; at 348 GPCRs [2] (setting [12]) it was -0.751%; at 348 GPCRs [3] (setting [13]), 0.263%; at 348 GPCRs [4] (setting [14]), -9.1%; on 348 GPCRs [5] (setting [15]) it was 1.42%; on 348 GPCRs [9] (setting [19]) it was 0.931%. The activation at 10 µM on 348 GPCRs [10] (setting [20]) is 2.35%. Also, the activation at 100 µM at 348 GPCRs [6] (setting [16]) was -2.56%; on 348 GPCRs [7] (setting [17]), -6.1%; on 348 GPCRs [8] (setting [18]), 0.11%.

On to `CC(C)OC(=O)[C@H](C)N[P@](=O)(OC[C@H]1O[C@@H](n2ccc(=O)[nH]c2=O)[C@](C)(F)[C@@H]1O)Oc1ccccc1` [sofosbuvir], for which the activation at 10 µM was -3.4% on 348 GPCRs [1] (setting [21]); -1.59% on 348 GPCRs [2] (setting [22]); 1.76% at 348 GPCRs [3] (setting [23]); -3.86% on 348 GPCRs [4] (setting [24]); -0.359% on 348 GPCRs [5] (setting [25]); 0.58% at 348 GPCRs [9] (setting [29]). Moreover, the activation at 10 µM on 348 GPCRs [10] (setting [30]) was found to be 1.49%. In addition, the activation at 100 µM on 348 GPCRs [6] (setting [26]) is -0.631%; on 348 GPCRs [7] (setting [27]) it was -8.04%; at 348 GPCRs [8] (setting [28]) it was 2.98%.

On to `N#C[C@@]1(c2ccc3c(N)ncnn23)O[C@H](CO)[C@@H](O)[C@H]1O` [GS441524], for which the activation at 10 µM on 348 GPCRs [1] (setting [11]) was -0.779%; at 348 GPCRs [2] (setting [12]), 2.73%; on 348 GPCRs [3] (setting [13]), -0.409%; on 348 GPCRs [4] (setting [14]), 1.71%; on 348 GPCRs [5] (setting [15]), -3.77%; on 348 GPCRs [9] (setting [19]) it was -2.87%. Besides, the activation at 10 µM on 348 GPCRs [10] (setting [20]) was found to be 0.403%. Also, the activation at 100 µM at 348 GPCRs [6] (setting [16]) was -1.77%; on 348 GPCRs [7] (setting [17]), -0.341%; at 348 GPCRs [8] (setting [18]), -3.93%.

Regarding `NC(=O)c1nc(F)cnc1O` [favipiravir, 6-fluoro-3-hydroxy-2-pyrazinecarboxamide], the activation at 100 µM on 348 GPCRs [1] (GPCR GPR101 (G protein-coupled receptor 101), 100μM, read-out: % GPCR activation compared to TPA) was -0.717%; on 348 GPCRs [4] (GPCR P2Y8 (purinergic receptor P2Y, G-protein coupled, 8), 100μM, read-out: % GPCR activation compared to TPA), 1.7%; on 348 GPCRs [6] (setting [16]), -1.8%; on 348 GPCRs [7] (setting [17]), -1.75%; at 348 GPCRs [8] (setting [18]) it was -4.67%. Moreover, the activation at 10 µM is 2.09% on 348 GPCRs [2] (setting [12]); -1% on 348 GPCRs [3] (setting [13]); -1.79% on 348 GPCRs [5] (setting [15]); -1.55% at 348 GPCRs [9] (setting [19]); -2.75% at 348 GPCRs [10] (setting [20]).

In the case of `CCC(CC)COC(=O)[C@H](C)N[P@](=O)(OC[C@H]1O[C@@](C#N)(c2ccc3c(N)ncnn23)[C@H](O)[C@@H]1O)Oc1ccccc1` [remdesivir], the activation at 10 µM at 348 GPCRs [1] (setting [21]) was 1.7%; on 348 GPCRs [2] (setting [22]), 5.91%; at 348 GPCRs [3] (setting [23]), 1.06%; on 348 GPCRs [4] (setting [24]), 6.38%; on 348 GPCRs [5] (setting [25]), -2.47%; at 348 GPCRs [9] (setting [29]), 4.74%. Besides, the activation at 10 µM on 348 GPCRs [10] (setting [30]) was -0.777%. Moreover, the results for the activation at 100 µM at 348 GPCRs [6] (setting [26]), on 348 GPCRs [7] (setting [27]) and on 348 GPCRs [8] (setting [28]) were -2.25%, -1.56% and -0.159%, respectively.
